From patent publication US12336982B2 (RODEO THERAPEUTICS CORPORATION, priority 2018, dated 2025) come the findings set out here.

The target of this experiment is T1, recombinant 15-PGDH (Homo sapiens, UniProt P15428).
T1 sequence (P15428 1-266): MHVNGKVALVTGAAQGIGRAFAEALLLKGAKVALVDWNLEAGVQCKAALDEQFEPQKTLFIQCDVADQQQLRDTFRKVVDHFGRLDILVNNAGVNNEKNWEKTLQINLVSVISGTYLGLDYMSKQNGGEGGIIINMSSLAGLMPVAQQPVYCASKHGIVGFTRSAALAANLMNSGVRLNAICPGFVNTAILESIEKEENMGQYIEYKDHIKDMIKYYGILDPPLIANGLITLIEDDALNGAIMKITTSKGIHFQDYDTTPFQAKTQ
The format is biochemical. The settings on record: recombinant human 15-PGDH, in vitro; read-out: PDGH Assay-IC50.

The IC50 is the point on the concentration scale where inhibition reaches its midpoint.

From the text: The Recombinant 15-PGDH is human unless otherwise specified.

In the case of `Cn1cncc(-c2cc(C3CCC3)c3c(N)c([S+]([O-])C4CCC4)sc3n2)c1=O` (stereo not drawn) [Example 409], the IC50 was less than 2.5 nM. Under `COCCC[S+]([O-])c1sc2nc(-c3cnc4c(c3)CNC4=O)cc(-c3ccccc3)c2c1N` (stereo not drawn) [Example 303] stands less than 2.5 nM. Under `COCC[S+]([O-])c1sc2nc(-c3cnc4ncn(C)c4c3)cc(C3CCC3)c2c1N` (stereo not drawn) [Example 365] stands less than 2.5 nM. Under `CNC(=O)c1ncc(-c2cc(-c3ccccc3)c3c(N)c([S+]([O-])C4CCC4)sc3n2)cn1` (stereo not drawn) [Example 53] stands less than 2.5 nM. With `Nc1c([S+]([O-])C2CCC2)sc2nc(-c3cccnc3)nc(C3CC3)c12` (stereo not drawn) [Example 189], the IC50 is less than 2.5 nM.

On to `Cn1cc2cc(-c3cc(C(F)(F)F)c4c(N)c([S+]([O-])C5CCC5)sc4n3)cnc2n1` (stereo not drawn) [Example 421], for which the IC50 is less than 2.5 nM. For the compound `CN(C)c1cc(-c2cc(-c3cnc(N)nc3)nc3sc([S@+]([O-])C4CCC4)c(N)c23)n(C)n1` [Example 415], the IC50 is less than 2.5 nM. Under `COCC[S@+]([O-])c1sc2nc(-c3cnc4nn(C)cc4c3)cc(-c3ccn(C)n3)c2c1N` [Example 344] stands no less than 10 nM. As for `COCC[S@@+]([O-])c1sc2nc(-c3cccnc3)cc(C(F)(F)F)c2c1N` [Example 80], the IC50 was less than 2.5 nM. Under `COCCC[S+]([O-])c1sc2nc(-c3cnc4c(cnn4C)c3)cc(-c3ccccc3)c2c1N` (stereo not drawn) [Example 116] stands 2.5 to 10 nM; under `CS(=O)(=O)Nc1ncc(-c2cc(-c3ccccc3)c3c(N)c([S@+]([O-])C4CCC4)sc3n2)cn1` [Example 68], less than 2.5 nM; under `COCCC[S+]([O-])c1sc2nc(-c3cnc4nn(C)cc4c3)cc(-c3ccccc3)c2c1N` (stereo not drawn) [Example 123], less than 2.5 nM. `COCC[S+]([O-])c1sc2nc(-c3cnc(N)nc3)cc(C(F)(F)F)c2c1N` (stereo not drawn) [Example 132]: the IC50 is less than 2.5 nM.

For `Nc1c([S+]([O-])C2CCC2)sc2nc(-c3cccnc3)cc(-c3cccnc3)c12` (stereo not drawn) [Example 50], the IC50 was less than 2.5 nM. For `COCC[S+]([O-])c1sc2nc(-c3ccnnc3)cc(C3CCC3)c2c1N` (stereo not drawn) [Example 347] the value was less than 2.5 nM; for `COCC[S+]([O-])c1sc2nc(-c3cnc4c(c3)ncn4C)cc(C3CCC3)c2c1N` (stereo not drawn) [Example 373], less than 2.5 nM; for `COCC[S@+]([O-])c1sc2nc(-c3cnc(N)nc3)cc(C3CC3)c2c1N` [Example 151], no less than 10 nM.

As to `COCCC[S@@+]([O-])c1sc2nc(-c3cncnc3)cc(C(F)(F)F)c2c1N` [Example 200], the IC50 is less than 2.5 nM. For `COCC[S@+]([O-])c1sc2nc(-c3cnc4nncn4c3)cc(-c3ccccc3)c2c1N` [Example 360] the value was no less than 10 nM; for `Nc1c([S+]([O-])C2CCC2)sc2nc(-c3cnc(N4CC(O)C4)nc3)cc(-c3ccccc3)c12` (stereo not drawn) [Example 248], less than 2.5 nM; for `Nc1c([S@+]([O-])C2CCC2)sc2nc(-c3cncnc3)cc(-c3ccnn3C3CC3)c12` [Example 215], less than 2.5 nM. Under `Cn1cnc(-c2cc(-c3cncnc3)nc3sc([S@+]([O-])C4CCC4)c(N)c23)c1` [Example 64] stands less than 2.5 nM; under `COCCC[S+]([O-])c1sc2nc(-c3cncnc3)cc(-c3cccnn3)c2c1N` (stereo not drawn) [Example 236], less than 2.5 nM; under `Cn1ccc(-c2cc(-c3cncnc3)nc3sc([S+]([O-])C4CCC4)c(N)c23)n1` (stereo not drawn) [Example 280], less than 2.5 nM. Consider `COCC[S@+]([O-])c1sc2nc(-c3cnc4c(c3)CNC4=O)cc(-c3ccccc3)c2c1N` [Example 243], for which the IC50 was no less than 10 nM. Under `Nc1ncc(-c2cc(-c3ncccc3F)c3c(N)c([S+]([O-])C4CCC4)sc3n2)cn1` (stereo not drawn) [Example 77] stands less than 2.5 nM; under `COCC[S+]([O-])c1sc2nc(-c3ccc(NC(=O)OC)nc3)cc(-c3cccnc3)c2c1N` (stereo not drawn) [Example 390], 2.5 to 10 nM. Consider `COCC[S+]([O-])c1sc2nc(-c3cnn(CCO)c3)cc(-c3ccccc3)c2c1N` (stereo not drawn) [Example 271], for which the IC50 is less than 2.5 nM. As for `CN1CCN(c2ncc(-c3cc(-c4ccccc4)c4c(N)c([S@@+]([O-])C5CCC5)sc4n3)cn2)CC1` [Example 49], the IC50 is no less than 10 nM. For `Nc1c([S+]([O-])C2CCC2)sc2nc(-c3cncnc3)cc(-c3ncccc3F)c12` (stereo not drawn) [Example 121] the value was less than 2.5 nM; for `Nc1c([S@+]([O-])C2CCC2)sc2nc(-c3cnc(NCCO)nc3)cc(-c3ncccc3F)c12` [Example 181], less than 2.5 nM. `COCC[S@@+]([O-])c1sc2nc(-c3cncnc3)cc(-c3ncccn3)c2c1N` [Example 230]: the IC50 was less than 2.5 nM. Take `CC(=O)N1CCC(c2cc(-c3ccc(F)cc3)c3c(N)c([S+]([O-])C4CCC4)sc3n2)CC1` (stereo not drawn) [Example 59]: the IC50 was no less than 10 nM.
